{"source": "patent US20120321579A1", "about": "“SURFACTANT COMPOSITIONS” (ANTERIOS, INC., priority 2011, published 2012)", "tested_on": "Axillary Sweating", "test": "Clinical study to evaluate effect of Polysorbate 80 on axillary sweating (gravimetric sweat measurement)", "type": "in vivo, human"}
{"substance": "Polysorbate 80", "values": [{"measurement": "conclusion on activity in reducing sweat production", "setting": "conclusion from the clinical study", "value": "biologically active in reducing sweat production"}, {"measurement": "reduction in sweat production (average) as measured by gravimetric sweat measurement", "setting": "two weeks after a single topical treatment, 14.34 mg Polysorbate 80 per axilla (0.3 mL/axilla), subjects with moderate to severe primary axillary hyperhidrosis, 5 minute collection", "value": 159, "unit": "mg"}, {"measurement": "greater reduction in sweat production than the subjects in the control group (placebo, water)", "setting": "two weeks after a single topical treatment, 14.34 mg per axilla, 159 mg versus 53 mg placebo", "value": 300, "unit": "%"}, {"measurement": "percent of subjects with at least a 30% reduction in sweat production when compared to levels at the Baseline visit", "setting": "two weeks after a single topical treatment, 14.34 mg per axilla, gravimetric sweat measurement", "value": 80, "unit": "%"}, {"measurement": "greater effectiveness in reducing sweat production than subjects treated with placebo (responder assessment)", "setting": "two weeks after a single topical treatment, 80% versus 29% of subjects with at least a 30% reduction", "value": 280, "unit": "%"}]}
